The target of experiment [1] is HLA-B*5101 (B51) (Homo sapiens, UniProt P01889, A329T/A93T/A95T/C349S/D138N/D201E/D98Y/E187L/E204Q/E69T/G107R/I218V/K202T/L105A/L119W/N104I/Q94N/R106L/R155S/R180L/S101N/S121T/S35A/S48A/V306I/V36M/Y195H/Y91F). Nature of the experiment: Purified HLA class I peptide binding assay, B51. Particulars: binding affinity, HLA-B7 supermotif-bearing peptides; read-out: B*5101 nM.

For experiment [2], the target named is HLA-B*3501 (Homo sapiens, UniProt P01889, A329T/A93T/A95T/C349S/D201E/D98Y/E176V/E187L/E204Q/E69T/I218V/K202T/L119I/Q94N/R155S/R180L/S121R/S35A/S48A/T118I/V127L/V306I/V36M/Y140S/Y91F). Nature of the experiment: Purified HLA class I peptide binding assay, B*3501. Particulars: binding affinity, HLA-B7 supermotif-bearing peptides.
For experiment [3], the target named is HLA-B*5401 (Homo sapiens, UniProt P01889, A329T/C349S/D138N/D201E/E176V/E187T/E204Q/E69G/I76V/K202T/L119W/R155S/R180L/S121T/S35A/S48A/V127L/V306I/V36M/Y140L). In words: Purified HLA class I peptide binding assay, B*5401. Particulars: binding affinity, HLA-B7 supermotif-bearing peptides.
Experiment [4] concerns the target HLA-B*5301 (Homo sapiens, UniProt P01889, A329T/A93T/A95T/C349S/D201E/D98Y/E176V/E187L/E204Q/E69T/G107R/I218V/K202T/L105A/L119I/N104I/Q94N/R106L/R155S/R180L/S101N/S121R/S35A/S48A/T118I/V127L/V306I/V36M/Y140S/Y91F). Nature of the experiment: Purified HLA class I peptide binding assay, B*5301. Particulars: binding affinity, HLA-B7 supermotif-bearing peptides.
In experiment [5] the target is HLA-B*0702 (Homo sapiens, UniProt P01889). In words: Purified HLA class I peptide binding assay, B*0702. Particulars: binding affinity, HLA-B7 supermotif-bearing peptides.

Residues, ends and D or L forms follow the SMILES beside them.

As for `CC[C@H](C)[C@H](NC(=O)[C@H](Cc1ccccc1)NC(=O)[C@@H](NC(=O)[C@H](Cc1ccc(O)cc1)NC(=O)[C@H](CC(C)C)NC(=O)[C@H](Cc1c[nH]cn1)NC(=O)CNC(=O)[C@@H](NC(=O)[C@@H]1CCCN1C(=O)[C@@H](N)Cc1ccccc1)[C@@H](C)CC)[C@@H](C)CC)C(=O)O`, the IC50 turned out to be 5.7 nM in experiment [1]; 139 nM in experiment [2]; 2.9 nM in experiment [3]; 8.5 nM in experiment [4]; 63 nM in experiment [5].

On to `CC(C)C[C@H](NC(=O)[C@H](C)NC(=O)[C@H](CCCNC(=N)N)NC(=O)[C@@H]1CCCN1C(=O)[C@@H](N)Cc1ccccc1)C(=O)N[C@H](C(=O)N[C@@H](CCC(=O)O)C(=O)N[C@H](C(=O)N[C@@H](CO)C(=O)N[C@@H](Cc1ccc(O)cc1)C(=O)N[C@H](C(=O)O)C(C)C)[C@@H](C)O)C(C)C`, for which the IC50 was 204 nM in experiment [1]; 4230 nM in experiment [2]; 10 nM in experiment [3]; greater than 10000 nM in experiment [4]; 4.2 nM in experiment [5].

Consider `CC[C@H](C)[C@H](NC(=O)[C@H](Cc1ccc(O)cc1)NC(=O)[C@H](CC(C)C)NC(=O)[C@H](Cc1c[nH]cn1)NC(=O)CNC(=O)[C@@H](NC(=O)[C@@H]1CCCN1C(=O)[C@@H](N)Cc1ccccc1)[C@@H](C)CC)C(=O)N[C@@H](Cc1ccccc1)C(=O)N[C@@H](C)C(=O)O` (H-FPIGHLYIFA-OH; N-terminus and C-terminus assumed), for which the IC50 in experiment [1] is 56 nM; in experiment [2] it was 51 nM; in experiment [3] it was 0.4 nM; in experiment [4] it was 179 nM; in experiment [5], 39 nM.

`CC[C@H](C)[C@H](NC(=O)[C@H](CC(C)C)NC(=O)[C@H](CC(C)C)NC(=O)CNC(=O)[C@H](C)NC(=O)[C@H](CCCCN)NC(=O)[C@@H]1CCCN1C(=O)[C@@H](N)Cc1ccccc1)C(=O)N[C@H](C(=O)N[C@H](C(=O)O)C(C)C)[C@@H](C)CC` (H-FPKAGLLIIV-OH; N-terminus and C-terminus assumed): the IC50 in experiment [1] stood at 190 nM; in experiment [2], 878 nM; in experiment [3], 1.1 nM; in experiment [4], 4650 nM; in experiment [5] it was 220 nM.

Take `CC[C@H](C)[C@H](NC(=O)[C@H](Cc1ccc(O)cc1)NC(=O)[C@H](CO)NC(=O)[C@@H](NC(=O)[C@H](CCC(=O)O)NC(=O)[C@@H](NC(=O)[C@H](CC(C)C)NC(=O)[C@H](C)NC(=O)[C@H](CCCNC(=N)N)NC(=O)[C@@H]1CCCN1C(=O)[C@@H](N)Cc1ccccc1)[C@@H](C)CC)[C@@H](C)O)C(=O)O` (H-FPRALIETSYI-OH; N-terminus and C-terminus assumed): the IC50 in experiment [1] came to 70 nM; in experiment [2], 3600 nM; in experiment [3] it was 127 nM; in experiment [4] it was 465 nM; in experiment [5], 7.4 nM.

In the case of `CSCC[C@H](NC(=O)[C@@H](NC(=O)[C@@H](NC(=O)[C@@H]1CCCN1C(=O)[C@@H](N)Cc1ccccc1)[C@@H](C)O)[C@@H](C)O)C(=O)N[C@@H](CC(N)=O)C(=O)N[C@@H](Cc1ccc(O)cc1)C(=O)N1CCC[C@H]1C(=O)N[C@@H](CC(C)C)C(=O)O` (H-FPTTMNYPL-OH; N-terminus and C-terminus assumed), the IC50 in experiment [1] stood at 423 nM; in experiment [2], 4.5 nM; in experiment [3], 3 nM; in experiment [4], 39 nM; in experiment [5], 6.4 nM.

The values above are taken from US20040053822A1, “Inducing cellular immune responses to mage2/3 using peptide and nucleic acid compositions” (priority 2002, published 2004).
